Measured values reported in patent US20180228894A1, “INHIBITION OF CXCR4 SIGNALING IN CANCER IMMUNOTHERAPY” (Cambridge Enterprise Limited, priority 2013, published 2018).
Entries after “also recorded” stand apart in the source; their conditions may differ.

Key:
[1] = system: LL2/OVA tumors; details: AMD3100 30 mg/ml osmotic pump; C57BL/6 and Rag2−/− mice
Protocol: C57BL/6 were purchased from Charles River UK and Rag2−/− mice were bred at the local establishment. 2×10^5 LL2/OVA cells were injected subcutaneously in RPMI with 1% heat inactivated mouse serum. Tumor sizes were measured using calipers, measuring the long (L) and short (S) dimension, and tumor volumes were calculated using the equation: volume=(L×S2)/2.

[2] = system: autochthonous mouse pancreatic tumors (KPC model); experiment: In vitro T cell exclusion assay: vibratome sections of KPC pancreatic tumors overlaid with activated T cells; type: cell-based; details: culture in the presence of the substance, 37° C. for up to 120 min
Text: This assay tests the mechanism of T cell exclusion from the vicinity of the cancer cells. It also allows screening of drugs and tumors for potential efficacy. This in vitro assay may also be used to screen other drugs (anti-CXCL12, anti-CXCR4, other CXCR4-directed small molecules) that may interfere with the CXCL12/CXCR4 interaction.
300 um vibratome sections of fresh autochthonous mouse pancreatic tumors (the mouse KPC model of Hingorani et al., Cancer Cell 2005) are overlaid with labeled mouse splenic T cells that have been activated in vitro for several days with anti-CD3 and IL-2 (this generates a T cell population that is like the effector T cells that normally infiltrate inflamed tissues/tumors). The tumor tissue+labeled T cells are then cultured at 37° C. for up to 120 min, after which the non-infiltrated T cells are washed off. The vibratome sections are then fixed for staining (p53 which identifies cancer cells) and SHG (to visualize collagen/stromal regions) by confocal microscopy.

[3] = system: PDA; experiment: PDA tumor volume by ultrasound in KPC / KPCD mice, 6 day treatment; type: in vivo, mouse
Protocol: (§1) All experiments were performed in accordance with institutional guidelines and were approved by the UK Home Office and the animal ethics committee of CRUK and the University of Cambridge. Mice were housed at a 12-hour light/12-hour dark cycle and received diet and water ad libitum. The generation of LSL-[…]; LSL10 Tp53R172H/+; Pdx-1-Cre (KPC) and FAP-DTR BAC transgenic mice has been described previously (8, 10). These strains were crossed to generate KPCD (Kras; p53; Cre; DTR) mice. KPC and KPCD mice were screened for tumors from an age of 60 days by abdominal palpation. Tumors were verified by high-resolution ultrasound (Vevo 2100, VisualSonics). Mice with average tumor diameters between 5-8 mm (corresponding to approx. 200 mm3 volume) were enrolled on 6 day treatment studies with 2 follow-up tumor size measurements (day 3 and 6). Where possible, tumors were assessed at multiple angles and the volumes averaged. KPC(−/+DTR Tg) mice were treated every 48 h with 25 ng/g DTx (List Biologicals) in PBS, […] α-PD1 (10F.9G2, Biolegend), 100 μg α-CTLA-4 (9H10, Biolegend) or isotype control antibody by intraperitoneal injection. […] For T-cell depletion studies mice received […] each of α-CD4 (GK1.5, Biolegend) and α-CD8α (53-6.7, Bioloegend) or respective isotype control antibodies for 3 consecutive […] before treatment start and on days 2 and 5 during the course of treatment via intraperitoneal injection.

[4] = system: PDA; experiment: Immunofluorescent confocal microscopy / ARIOL scanning of KPC tumor sections after treatment; type: in vivo, mouse
Protocol: as §1
5 μm frozen tissue sections were fixed in 4% paraformaldehyde (PFA) for 10 minutes at room temperature. Slides were blocked for one hour in 10% donkey serum (Sigma Aldrich)/0.2% Triton x-100. Primary antibodies were incubated overnight at 4° C. Following washing, slides were incubated for one hour at room temperature with appropriate secondary antibody and DAPI counterstain. Slides were subsequently incubated in 0.3M glycine for 10 minutes to reduce autofluorescence and mounted in Hydromount aqueous mounting medium (Fisher Scientific). Images were acquired on a Leica SP5 tandem confocal microscope. For analysis of p53 and Treg staining slides were scanned and analyzed using the automated ARIOL XT system.

[5] = AMD3100 in combination with α-PD-L1, 24 h treatment

Row | Compound | Control of subcutaneous LL2 tumors (tumor volume) [1] | Localization of T cells in tumor sections [2] | Tumor growth ([3]; AMD3100 by osmotic pump, presence or absence of depleting antibodies to CD4+ and CD8+ T cells) | Decline in PDA volume ([3]; higher dose AMD3100 in combination with α-PD-L1, by 48 h, maintained for 6 days) [%] | PDA growth ([3]; higher dose of AMD3100 (osmotic pump)) | Interaction of AMD3100 with α-PD-L1 ([3]; murine PDA, combination) | Composition of residual tumors ([4]; AMD3100 alone, ARIOL scanning) | Proliferating Ki67+ cells ([4]; AMD3100 and anti-PD-L1, 6 days (FIG. 11, panel E)) | Foxp3+ cells in the tumors ([4]; AMD3100 high in combination with α-PD-L1, 24 h) | Accumulation of T cells amongst cancer cells [4, 5] | Frequency of p53+ LOH cancer cells [4, 5] | Composition of residual tumors ([4]; AMD3100 with α-PD-L1, ARIOL scanning) | Presence of p53+ LOH cancer cells in tumors ([4]; AMD3100 with α-PD-L1, after 6 days of treatment) | Accumulation of T cells amongst cancer cells ([4]; single agent, 24 h treatment) | Presence of p53+ LOH cancer cells in tumors ([4]; single agent, after 6 days of treatment)
1 | c1cc(CN2CCCNCCNCCCNCC2)ccc1CN1CCCNCCNCCCNCC1 [AMD3100, 1,1′-[1,4-phenylenebis(methylene)]bis [1,4,8,11-tetraazacyclotetradecane]] | T cell-dependent control of subcutaneous immunogenic LL2 tumors | T cells to be found in both stromal and cancer cell regions | slowed by AMD3100 in a T cell-dependent manner | 15 | almost completely arrested PDA growth | remarkable synergistic interaction | comprised of premalignant CK19+ epithelial cells and CD45+ inflammatory cells | diminution in proliferating Ki67+ cells | increase | amplified this effect; also recorded: induce the accumulation of CD3+ T cells in cancer-cell-containing regions of PDA | decreased the frequency of p53+ LOH cells; also recorded: loss of cancer cells | comprised of premalignant CK19+ epithelial cells and CD45+ inflammatory cells | rare | increased the accumulation of T cells; also recorded: exclusion is overcome | rare
2 | Z-VAD |  | T cells accumulating also amongst cancer cells |  |  |  |  |  |  |  |  |  |  |  |  | 
